Test results: patent US20180332790A1 (priority 2015, published 2018)
Several values for one entry are separate records, joined by “and”; a condition that tells them apart may be missing. Equal values may be shown once. Entries after “also recorded” stand apart in the source; their conditions may differ.

Assays:
maize [1] = conditions: in vivo
maize [2] = conditions: in vivo; remark: listed apart in the source

For `CCCCCCCC/C=C\CCCCCCCC(=O)O[C@H](COC(=O)CCCCCCCCCCCCCCCCC)COP(=O)(O)OCCN` [1-stearyl-2-oleoyl-sn-phosphatidylethanolamine], the “de novo haploid induction (in words)” value (maize [1]) was “haploid inducing compound”.
In the case of `CCCCC/C=C\C/C=C\CCCCCCCC(=O)O` [LLA, linoleic acid], the “de novo haploid induction (in words)” value (maize [1]) is reported as “triggered de novo haploid induction”, the “decrease in embryo abortion frequency compared to control buffer” value (maize [2]) is reported as 2.9% and the “effect on embryo abortion and kernel formation in haploid inducer crosses (in words)” value (maize [2]) is reported as “reduces the rate of embryo abortion and increases the rate of kernel formation; also recorded: increase the rate of viable kernel formation by reducing fertilization failure and embryo abortion”. For the same compound, the “effect on haploid induction rate / number of haploids in haploid inducer crosses (in words)” value (maize [2]) was “boosted the haploid induction rate; also recorded: increase the number of haploids formed and/or the rate of haploid formation”, the “increase in haploid induction rate compared to control buffer” value (maize [2]) was 1.5% and the “increase in haploids recovered per ear compared to control buffer” value (maize [2]) was 7.6 haploids per ear. For the same compound, the “increase in number of kernels per ear compared to control buffer” value (maize [2]) was 41 per ear.
With `CCCCCCCC/C=C\CCCCCCCC(=O)OCC` [OAEE, oleic acid ethyl ester] the “de novo haploid induction (in words)” value (maize [1]) was “triggered de novo haploid induction”.
In the case of `CC1=C(CC/C(C)=C/CCC2=CC[C@H](C3=CC(=O)O[C@H]3O)O[C@H]2O)C(C)(C)CCC1` [manoalide, reference compound], the “de novo haploid induction (in words)” value (maize [1]) is reported as “triggered de novo haploid induction; also recorded: able to induce haploid formation de novo”.
In the case of `CCCCCCCCCCCCCCCC(=O)OCC` [PAEE, palmitic acid ethyl ester], the “de novo haploid induction (in words)” value (maize [1]) is reported as “induces haploids”.
For `CCCCC/C=C\C/C=C\CCCCCCCC(=O)OCC` [LLAEE, linoleic acid ethyl ester], the “AVERAGE/EAR HIR” value (maize [2]) was 13.0% and 15.4%, the AVERAGE/EAR haploids (maize [2]) was 23.1 and 27.9 and the “AVERAGE/EAR k. a. rate” value (maize [2]) was 29.9% and 33.0%. For the same compound, the “AVERAGE/EAR k. a. rate, vs control” value (maize [2]) was −3.7% and −2.9%, the AVERAGE/EAR kernels (maize [2]) was 194.1 and 194.6 and the “AVERAGE/EAR kernels, vs control” value (maize [2]) was “+43.3”. The “decrease in embryo abortion frequency compared to control buffer” value (maize [2]) was 3.7%, the “effect on embryo abortion and kernel formation in haploid inducer crosses (in words)” value (maize [2]) was “reduces the rate of embryo abortion and increases the rate of kernel formation; also recorded: increase the rate of viable kernel formation by reducing fertilization failure and embryo abortion” and the “effect on haploid induction rate / number of haploids in haploid inducer crosses (in words)” value (maize [2]) was “boosted the haploid induction rate; also recorded: increase the number of haploids formed and/or the rate of haploid formation”. The “increase in haploid induction rate compared to control buffer” value (maize [2]) was 2.4%, the “increase in haploids recovered per ear compared to control buffer” value (maize [2]) was “over 8 haploids per ear” and the “increase in number of kernels per ear compared to control buffer” value (maize [2]) was “over 43 per ear”.
With `CCCCC/C=C\C/C=C\C/C=C\C/C=C\CCCC(=O)O` [arachidonic acid] the “de novo haploid induction (in words)” value (maize [1]) was “triggered”.
With `CCCCCCCCCCCCCCCCCC(=O)OC[C@H](COP(=O)([O-])OCC[N+](C)(C)C)OC(=O)CCCCCCCCCCCCCCCCC` [DSPC, 1,2-distearoyl-sn-glycero-3-phosphatidyl choline] the “de novo haploid formation (in words)” value (maize [1]) was “achieved de novo haploid formation” and the “de novo haploid induction (in words)” value (maize [1]) was “triggered de novo haploid induction; also recorded: highly active”.
`CCCCC/C=C\C/C=C\C/C=C\C/C=C\CCCC(=O)OC` [AAME, arachidonic acid methyl ester] was tested, and the “de novo haploid induction (in words)” value (maize [1]) was “triggered de novo haploid induction”.
